Patent US20110039825A1, “LIGANDS OF ALPHA-ADRENOCEPTORS, DOPAMINE, HISTAMINE, IMIDAZOLINE AND SEROTONIN RECEPTORS AND THEIR USE” (Alla Chem, LLC, priority 2007, published 2011)

Key:
mice = experiment: Mice Training in Morris Water Maze (Scopolamine); assay type: in vivo; conditions: unitary introduction of active ingredient
Experimental: Mice Training in Morris Water Maze. A round pool which was filled with water at 20-22° C. was used. A round ceramic platform of 14 cm height was placed in the pool. Animals's behavior was registered with automated computer videosystem in combination with software package of movement analysis Any-maze (Stoelting Co., US). Before testing mice suitable for training were selected. That was done by placing the platform 1 cm above the water level and putting an animal on the platform for 20 seconds. Then the mouse was sunk into the water on the opposite side of the pool, allowed to find the platform and climbed it within 60 seconds, where it was left for additional 20 seconds. After that the mouse was repeatedly immersed into water on the opposite side of the pool and allowed to look for platform. If it failed in finding the platform within 60 seconds the experimentator helped it to find the platform and climb it. If the mice could not find the platform itself in two consecutive attempts it was excluded from experiment.
During the next two days the platform was placed 0.5 centimeter lower the water level. Every day the mice were given four attempts for finding the platform within 60 seconds. The time interval between the attempts was 20 seconds, during which the mice stayed on the platform. Every day before the first attempt mouse was placed on the platform for 20 seconds. The time needed for finding and climbing the platform was registered. The animals were sunk in water in 3 different places on the side of the pool opposite to platform. On each day of two-day testing 35-40 minutes before the beginning of training the mice were injected intraintestinally with physiological solution, Scopolamine or Scopolamine in combination with investigated compound. At least 8 animals were used in each group.
On the third day the platform was removed and each animal was placed one time in the pool for a period of 60 seconds. The time each mouse spent in the area where the platform had been located during the previous days was registered. This time interval was regarded as a measure of effectiveness of training fulfilled during the previous two days. The testing was carried out during the day time in isolated laboratory using “white noise” at level of about 70 decibel above the human hearing threshold.

male mice of BALB/c line = experiment: Passive Avoidance of mice in the Shuttle Chamber, memory disturbed by Scopolamine; assay type: in vivo; conditions: Scopolamine 0.3 mg/kg
Experimental: A shuttle chamber (Ugo Basile, Italy) consisted of two sections was used. […] The sections were connected through a hole which could be overlapped by a vertical door. The floor was made of transverse metal bars on which DC current impulses could be fed. Experiments were carried out in aged male mice of BALB/c line weighing 20-24 grams.
Each group consisted of at least 8 animals. Animal was placed in light section, and latent period of the first entry into dark chamber was registered. Then the vertical door was closed and the animal was punished by 0.6 mA DC current for 3 seconds. After that it was taken back to its homecage. In 22-24 hours the same animal was placed again in light section of the shuttle chamber and latent period of its first entry into dark section, the total time of its stay in light section, and the number of entries into dark section, were registered. Each monitoring lasted for 5 minutes.
Testing was carried out during the day time in isolated laboratory using white noise at level of about 70 decibel above human hearing threshold.
Scopolamine causes the disturbance of training (memory loss) that results in […].

Row | Structure (SMILES) | memory disorders caused by Scopolamine in Morris water maze (mice) | enhancement of memory disturbed by Scopolamine (passive avoidance) (male mice of BALB/c line)
1 | Cc1ccc2c(c1)c1c(n2CCc2ccncc2)CCCN(C)C1.Cl.Cl [1.2.2(5-3)•2HCl] | decreasing memory disorders coused by Scopalomine | –
2 | Cc1ccc2c(c1)c1c(n2CCc2ccccc2)CCN(C)C1 [1.1.2(1-2), 2,8-dimethyl-5-phenethyl-1,2,3,4-tetrahydro-1H-pyrido[4,3-b]indole] | decreasing memory disorders coused by Scopalomine | improve memory
